Tests used:
Format in all cases: cell-based, murine
[1] = system: macrophage RAW264.7 cells; test: Cytotoxicity of veratric acid, WST-1 cell viability; details: up to 200 μM, 3 h pretreatment then 100 ng/ml LPS 24 h
Protocol: Cell lines used to evaluate cytotoxicity of a veratric acid were macrophage RAW264.7, human embryonic kidney (HEK) 293, and human keratinocyte (HaCaT) cells. For a cytotoxicity experiment, the cell lines were first incubated in a culture solution of DMEM containing 10% fetal bovine serum (FBS) and 1% penicillin (100 U/ml)/streptomycin (100 U/ml) under a condition of 5% CO2 at a temperature of 37° C. Then, the incubated cells were seeded in a 96-well plate at 1×10^5 cells/well. Each of the cells was treated at different concentrations (0, 50, 100, 150 and 200 μM) of a veratric acid and incubated for 3 hours. After the incubation, the cells were stimulated with 100 ng/ml LPS contained in a culture medium for 24 hours. Thereafter, the culture solution was removed, and then, the cells were treated with a solution of WST-1® (Daeil Lab service, Korea) and further incubated for 3 hours. An optical density of the culture solution was measured at 460 nm by using an ELIZA analyzer to analyze cell viability.

[2] = system: nitric oxide production in macrophage RAW264.7 cells; test: Nitric oxide (NO) production, Griess reagent; details: LPS 100 ng/ml in combination with veratric acid 50-200 μM, inhibition in proportion to concentration (FIG. 3B)
Protocol: In order to confirm whether or not the veratric acid has an activity of inhibiting production of nitric oxide that causes inflammation, the following experiment was performed. The prepared macrophage RAW264.7 cells were seeded in a 96-well plate at 1×10^5 cells/well. Each of the cells was treated at different concentrations (0, 50, 100, 150 and 200 μM) of the veratric acid and incubated for 3 hours. The cells were incubated in a culture medium containing 100 ng/ml LPS for 24 hours. Thereafter, a culture solution was acquired. After the culture solution was allowed to react with a Griess reagent, a production level of nitric oxide induced by the LPS was measured at 540 nm by using the ELIZA analyzer (BD PharMingen, USA).

[3] = system: inducible nitric oxide synthase (iNOS); test: iNOS gene and protein expression, RT-PCR and Western blot; details: LPS-stimulated RAW264.7 cells, concentration dependent (FIG. 4)
Protocol: Thus, the present inventors performed an RT-PCR and a Western blot analysis as follows in order to confirm whether or not the veratric acid's mechanism of inhibiting nitric oxide production was operated by regulating expression and protein activity of iNOS as an inducible nitric oxide synthase involved in nitric oxide production.
The prepared murine macrophage RAW264.7 cells treated with the LPS in combination with the veratric acid were used. RNA was extracted and separated from the incubated cells by using 2-mercaptoethanol (Sigma, USA). An RT-PCR was performed by using primers listed in Table 1 with the extracted RNA as a template. Then, after electrophoresis, an expression level of a gene was checked with ultraviolet light.
The prepared murine macrophage cells treated with the LPS in combination with the veratric acid were collected and lysed by using a lysis buffer {50 mM Tris-Cl [pH7.5], 150 mM NaCl, 1 mM DTT, 0.5% NP-40, 1% Triton X-100, 1% deoxycholate, 0.1% SDS and a cocktail of proteinase inhibitors [1 mM PMSF, 1 mM EDTA, 11 μM aprotinin, 11 μM leupeptin, and 11 μM pepstatin A (Intron Biotechnology, Gyeonggi, Korea)]}. Protein samples were electrophoresed by 12% SDS-PAGE and then electrically transferred to a nitrocellulose membrane. Thereafter, the protein samples were allowed to react with primary antibodies capable of recognizing the iNOS. […]

cyclooxygenase-2 (COX-2) = test: COX-2 gene and protein expression, RT-PCR and Western blot; details: LPS-stimulated RAW264.7 cells
IL-1β = IL-1β protein expression, Western blot; details: LPS-stimulated RAW264.7 cells, Western blot (FIG. 6)
IL-6 = IL-6 protein expression, Western blot; details: LPS-stimulated RAW264.7 cells, Western blot (FIG. 6)
TNF-α = TNF-α protein expression, Western blot; details: LPS-stimulated RAW264.7 cells, Western blot (FIG. 6)
IFN-γ = IFN-γ protein expression, Western blot; details: LPS-stimulated RAW264.7 cells, Western blot (FIG. 6)
STAT-1 = test: Phosphorylation of STAT-1, Western blot; details: LPS-stimulated macrophage cells, concentration dependent (FIG. 7)
Protocol: (§1) The prepared murine macrophage cells treated with the LPS in combination with the veratric acid were collected and lysed by using a lysis buffer {50 mM Tris-Cl [pH7.5], 150 mM NaCl, 1 mM DTT, 0.5% NP-40, 1% Triton X-100, 1% deoxycholate, 0.1% SDS and a cocktail of proteinase inhibitors [1 mM PMSF, 1 mM EDTA, 11 μM aprotinin, 11 μM leupeptin, and 11 μM pepstatin A (Intron Biotechnology, Gyeonggi, Korea)]}. Protein samples were electrophoresed by 12% SDS-PAGE and then electrically transferred to a nitrocellulose membrane. Thereafter, the protein samples were allowed to react with primary antibodies capable of recognizing the iNOS. After the membrane was washed and then allowed to react with horseradish peroxidase-linked […] or […] (Cell Signaling Technology Inc., USA). Then, signals were checked by using an enhanced chemiluminescent (ECL) detection system (Pierce, USA).
It is known that secreted IFN-γ promotes phosphorylation of STAT-1 and induces transcription of iNOS, and an activity of the iNOS causes production of nitric oxide and induces inflammation. Therefore, protein expression levels of STAT-1 and phosphorylated STAT-1 were checked through a Western blot analysis performed in the same manner as Example 3 in order to confirm an effect of the veratric acid, which reduced the protein level of the IFN-γ in Example 5, on phosphorylation of STAT-1.

NF-κB [4] = test: Phosphorylation of NF-κB, Western blot; details: LPS-stimulated macrophage cells, reduction in proportion to concentration (FIGS. 8A, 8B)
Protocol: as §1
(§2) An NF-κB is a transcription factor and when the NF-κB is activated by phosphorylated IκBα, it is moved into a nucleus and bound to a promoter site such that target molecules can be transcribed. Thus, the present inventors performed a Western blot analysis and an immunofluorescent microscopy as follows in order to confirm whether or not the veratric acid affected protein levels of the NF-κB and the IκBα. […]

IκBα = test: Phosphorylation of IκBα, Western blot; details: LPS-stimulated macrophage cells, Western blot (FIGS. 8A, 8B)
Protocol: as §1, §2

NF-κB [5] = test: Intracellular distribution of NF-κB, immunofluorescent microscopy; details: 100 μM veratric acid 1 hour, LPS 12 hours, immunofluorescent microscopy (FIGS. 8C, 8D)
Source text: An NF-κB is a transcription factor and when the NF-κB is activated by phosphorylated IκBα, it is moved into a nucleus and bound to a promoter site such that target molecules can be transcribed. Thus, the present inventors performed a Western blot analysis and an immunofluorescent microscopy as follows in order to confirm whether or not the veratric acid affected protein levels of the NF-κB and the IκBα. That is, protein expression levels of the NF-κB and the IκBα in the LPS-stimulated macrophage cells were checked through the Western blot analysis performed in the same manner as Example 3, and in the immunofluorescent microscopy, after 100 μM veratric acid was treated for 1 hour, LPS was incubated for 12 hours, and 4,6-diamidino-2-phenylindole (DAPI) was treated at room temperature for 15 minutes, the cells were immobilized with 4% formaldehyde and then distribution of the NF-κB in the cells was checked visually.

JNK = test: Phosphorylation of JNK, Western blot; details: LPS-stimulated macrophage cells, Western blot (FIG. 9)
Protocol: as §1
(§3) Protein expression levels of JNK, p38, and ERK1/2 in the LPS-stimulated macrophage cells were checked through a Western blot analysis performed in the same manner as Example 3 in order to confirm whether or not the veratric acid affected an activity of MAPK as a superordinate signaling system that produced pro-inflammatory cytokines.

p38 = test: Phosphorylation of p38, Western blot; details: LPS-stimulated macrophage cells, Western blot (FIG. 9); stronger effect than on JNK, ERK1/2
Protocol: as §1, §3

ERK1/2 = test: Phosphorylation of ERK1/2, Western blot; details: LPS-stimulated macrophage cells, Western blot (FIG. 9)
Protocol: as §1, §3

GSK-3β = test: Phosphorylation of GSK-3β, Western blot; details: LPS-stimulated macrophage cells, concentration dependent (FIG. 10)
Protocol: as §1
A protein expression level of GSK-3β in the LPS-stimulated macrophage cells was checked through a Western blot analysis performed in the same manner as Example 3 in order to confirm whether or not the veratric acid affected phosphorylation of the GSK-3β as a superordinate signaling system that caused inflammatory reactions.

c-Raf = test: Phosphorylation of c-Raf at Ser259 and Ser338, Western blot; details: LPS-stimulated macrophage cells, Western blot (FIG. 11)
Protocol: as §1
If c-Raf (RAF proto-oncogene serine/threonine-protein kinase) is phosphorylated at Ser^338, the c-Raf induces expression of iNOS. Thus, the present inventors checked a protein level of the c-Raf in the LPS-stimulated macrophage cells and a phosphorylated protein level at Ser^259 and Ser^338 of the c-Raf through a Western blot analysis performed in the same manner as Example 3 in order to confirm whether or not the veratric acid affected the protein level of the c-Raf.

COc1ccc(C(=O)O)cc1OC [veratric acid, 3,4-Dimethoxybenzoic acid]
cytotoxicity (cell viability) [1]: did not show cytotoxicity | excessive production of nitric oxide [2]: inhibited | gene expression of iNOS ([3]; RT-PCR): decreased or inhibited strongly | protein expression of iNOS ([3]; Western blot): decreased or inhibited strongly | gene expression of COX-2 (cyclooxygenase-2 (COX-2); RT-PCR (FIG. 5)): did not affect | protein expression of COX-2 (cyclooxygenase-2 (COX-2); Western blot (FIG. 5)): did not affect | protein expression level of IL-1β (IL-1β): reduced | protein expression level of IL-6 (IL-6): did not affect | protein expression level of TNF-α (TNF-α): did not affect | protein expression level of IFN-γ (IFN-γ): reduced | phosphorylation of the STAT-1 (STAT-1): reduced | protein expression of the phosphorylated NF-κB (NF-κB [4]): remarkably reduced | phosphorylated IκBα (IκBα): reduced | movement of the NF-κB into the nucleus (NF-κB [5]): inhibited | phosphorylation of the JNK (JNK): inhibited | phosphorylation of the p38 (p38): inhibited | phosphorylation of the ERK1/2 (ERK1/2): inhibited | phosphorylation of the GSK-3β (GSK-3β): remarkably inhibited | phosphorylation at Ser259 of the c-Raf (c-Raf): did not affect | phosphorylation at Ser338 of the c-Raf (c-Raf): inhibited

Source: patent US20140100286A1, “COMPOSITION FOR PREVENTING OR TREATING INFLAMMATORY DISEASES COMPRISING VERATRIC ACID AS EFFECTIVE COMPONENT” (Pukyong National University Industry-University Cooperation …, priority 2012, published 2014)
